PubChem BioAssay AID330 (DTP/NCI, 2004)
Values joined by “and” are separate entries in the source; they are usually repeats but may differ in a detail not shown here. Equal entries are not always repeated. Inconclusive results and toxic doses are left out. The calls were made as follows: active = survival T/C of 150% or more; inactive = T/C below 125% in these data.

Tested on: P388 leukemia ip, CD2F1 mice, survival T/C
Assay: NCI In Vivo Anticancer Drug Screen. Data for tumor model P388 Leukemia (intraperitoneal) in CD2F1 (CDF1) mice
Settings: endpoint: median survival time, higher = longer survival
Summary of the method: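 Mice carrying the transplanted tumor received test compound or vehicle. Survival was recorded in each group, and the value is the treated-group measurement divided by that of the vehicle-treated control group.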

[1] = dose: 2.0 mg/kg/injection, schedule: Q01DX009 (ip), vehicle: saline
[2] = dose: 4.0 mg/kg/injection, schedule: Q01DX009 (ip), vehicle: saline
[3] = dose: 8.0 mg/kg/injection, schedule: Q01DX009 (ip), vehicle: saline
[4] = dose: 50.0 mg/kg/injection, schedule: Q01DX005 (ip), vehicle: Klucel (hydroxypropylcellulose) (HPC)
[5] = dose: 100.0 mg/kg/injection, schedule: Q01DX005 (ip), vehicle: Klucel (hydroxypropylcellulose) (HPC)
[6] = dose: 200.0 mg/kg/injection, schedule: Q01DX005 (ip), vehicle: Klucel (hydroxypropylcellulose) (HPC)
[7] = dose: 60.0 mg/kg/injection, schedule: Q01DX005 (ip), vehicle: saline with Tween-80
[8] = dose: 120.0 mg/kg/injection, schedule: Q01DX005 (ip), vehicle: saline with Tween-80
[9] = dose: 25.0 mg/kg/injection, schedule: Q01DX009 (ip), vehicle: saline with Tween-80
[10] = dose: 50.0 mg/kg/injection, schedule: Q01DX009 (ip), vehicle: saline with Tween-80
[11] = dose: 25.0 mg/kg/injection, schedule: Q01DX005 (ip), vehicle: saline
[12] = dose: 50.0 mg/kg/injection, schedule: Q01DX005 (ip), vehicle: saline
[13] = dose: 60.0 mg/kg/injection, schedule: Q01DX005 (ip), vehicle: saline
[14] = dose: 120.0 mg/kg/injection, schedule: Q01DX005 (ip), vehicle: saline
[15] = dose: 60.0 mg/kg/injection, schedule: Q01DX005 (ip), vehicle: Klucel (hydroxypropylcellulose) (HPC)
[16] = dose: 120.0 mg/kg/injection, schedule: Q01DX005 (ip), vehicle: Klucel (hydroxypropylcellulose) (HPC)
[17] = dose: 240.0 mg/kg/injection, schedule: Q01DX005 (ip), vehicle: Klucel (hydroxypropylcellulose) (HPC)

Measured: T/C

CCCCOP(=O)(N1CC1(C)C)N1CC1(C)C (stereo not given)
inactive: [1] 104 % of control and 115 % of control and 96 % of control | [2] 115 % of control and 117 % of control and 98 % of control | [3] 108 % of control and 111 % of control | dose: 10.0 mg/kg/injection, schedule: Q01DX001 (ip), vehicle: saline 105 % of control and 111 % of control and 115 % of control | dose: 20.0 mg/kg/injection, schedule: Q01DX001 (ip), vehicle: saline 101 % of control and 102 % of control | dose: 40.0 mg/kg/injection, schedule: Q01DX001 (ip), vehicle: saline 105 % of control and 117 % of control

COC(=O)CC1C(C)=CCC2C(=O)C=C(OC)C(=O)C21C (stereo not given)
inactive: [4] 101 % of control | [5] 101 % of control | [6] 100 % of control

O=c1[nH]c(=O)n(C2CCCS2)cc1F (stereo not given)
inactive: dose: 37.5 mg/kg/injection, schedule: Q01DX009 (ip), vehicle: suspension in saline 100 % of control | dose: 75.0 mg/kg/injection, schedule: Q01DX009 (ip), vehicle: suspension in saline 100 % of control | dose: 150.0 mg/kg/injection, schedule: Q01DX009 (ip), vehicle: suspension in saline 97 % of control

O=C1NC(=O)C2=C1NCCN2
inactive: dose: 100.0 mg/kg/injection, schedule: Q04DX003 (ip), vehicle: saline 107 % of control | dose: 200.0 mg/kg/injection, schedule: Q04DX003 (ip), vehicle: saline 104 % of control | dose: 400.0 mg/kg/injection, schedule: Q04DX003 (ip), vehicle: saline 99 % of control

Cc1sc2ccccc2c(=O)c1CCl
inactive: [7] 111 % of control | [8] 104 % of control

CC1(c2cccs2)NC(=O)NC1=O (stereo not given)
inactive: [9] 100 % of control | [10] 109 % of control | dose: 100.0 mg/kg/injection, schedule: Q01DX009 (ip), vehicle: saline with Tween-80 98 % of control | dose: 200.0 mg/kg/injection, schedule: Q01DX009 (ip), vehicle: saline with Tween-80 104 % of control | dose: 400.0 mg/kg/injection, schedule: Q01DX009 (ip), vehicle: saline with Tween-80 101 % of control

CCCCCCC(/C=C/c1ccc(Cl)c(Cl)c1)=N\Nc1ccccc1
inactive: dose: 6.25 mg/kg/injection, schedule: Q01DX009 (ip), vehicle: saline with Tween-80 103 % of control | dose: 12.5 mg/kg/injection, schedule: Q01DX009 (ip), vehicle: saline with Tween-80 97 % of control | [9] 103 % of control | [10] 100 % of control

CCOC(=O)c1c(Cl)c(CC)c(N=[N+]=[N-])n2c1nc1ccccc12
inactive: [7] 101 % of control | [8] 101 % of control

C[N+]1(C[Si](C)(C)c2ccccc2)CCOCC1
inactive: dose: 12.5 mg/kg/injection, schedule: Q01DX005 (ip), vehicle: saline 105 % of control | [11] 103 % of control | [12] 102 % of control and 104 % of control

COC(=O)/C=C1/C2C=CC(O2)C1C(=O)OC (stereo not given)
inactive: dose: 50.0 mg/kg/injection, schedule: Q01DX005 (ip), vehicle: saline with Tween-80 96 % of control | dose: 100.0 mg/kg/injection, schedule: Q01DX005 (ip), vehicle: saline with Tween-80 99 % of control | dose: 200.0 mg/kg/injection, schedule: Q01DX005 (ip), vehicle: saline with Tween-80 97 % of control

CN(C)c1cnc(N)nc1N
inactive: [11] 95 % of control and 97 % of control | [12] 97 % of control | dose: 100.0 mg/kg/injection, schedule: Q01DX005 (ip), vehicle: saline 95 % of control

[Br][Sn]([Br])([CH2][Sn]([Br])([Br])[c]1ccccc1)[c]1ccccc1
inactive: [4] 97 % of control | [5] 99 % of control | [6] 89 % of control

O=S(=O)(O)O.[NH-]CC(N)=O.[NH-]CC(N)=O.[Ni+2]
inactive: dose: 1.0 mg/kg/injection, schedule: Q01DX009 (ip), vehicle: saline 95 % of control | [1] 90 % of control | [2] 95 % of control | [3] 90 % of control

CN=NNc1ccc(C#N)cc1
inactive: dose: 100.0 mg/kg/injection, schedule: Q01DX001 (ip), vehicle: Klucel (hydroxypropylcellulose) (HPC) 98 % of control | dose: 200.0 mg/kg/injection, schedule: Q01DX001 (ip), vehicle: Klucel (hydroxypropylcellulose) (HPC) 98 % of control | dose: 400.0 mg/kg/injection, schedule: Q01DX001 (ip), vehicle: Klucel (hydroxypropylcellulose) (HPC) 95 % of control

CCC(=O)Nc1c(O)c(Br)c(NC(=O)CC)c(O)c1Br
inactive: [13] 104 % of control | [14] 100 % of control | dose: 240.0 mg/kg/injection, schedule: Q01DX005 (ip), vehicle: saline 105 % of control

CN(C)CCC(=O)c1ccc2c(c1)OCO2
inactive: [13] 100 % of control | [14] 92 % of control

CC1SC2(C(=O)Nc3ccc([N+](=O)[O-])cc32)N(c2ccc(Cl)cc2)C1=O (stereo not given)
inactive: [7] 91 % of control | [8] 91 % of control | dose: 240.0 mg/kg/injection, schedule: Q01DX005 (ip), vehicle: saline with Tween-80 91 % of control

O=[N+]([O-])c1ccc(-c2ncc(-c3ccc(Br)cc3)o2)cc1
inactive: [15] 108 % of control | [16] 107 % of control | [17] 110 % of control

O=c1[nH]cnc2c1CCc1ccccc1-2
inactive: dose: 100.0 mg/kg/injection, schedule: Q04DX002 (ip), vehicle: saline with Tween-80 93 % of control | dose: 200.0 mg/kg/injection, schedule: Q04DX002 (ip), vehicle: saline with Tween-80 100 % of control | dose: 400.0 mg/kg/injection, schedule: Q04DX002 (ip), vehicle: saline with Tween-80 102 % of control

CCCCOc1ccc(-c2c(COC(=O)NC)c(COC(=O)NC)c(C)n2C)cc1
inactive: dose: 7.5 mg/kg/injection, schedule: Q01DX009 (ip), vehicle: distilled water + Tween-80 120 % of control

CC(C)=Cc1ccccc1C1(C)C(c2ccccc2)=C1c1ccccc1
inactive: dose: 100.0 mg/kg/injection, schedule: Q04DX002 (ip), vehicle: Klucel (hydroxypropylcellulose) (HPC) 100 % of control | dose: 200.0 mg/kg/injection, schedule: Q04DX002 (ip), vehicle: Klucel (hydroxypropylcellulose) (HPC) 98 % of control | dose: 400.0 mg/kg/injection, schedule: Q04DX002 (ip), vehicle: Klucel (hydroxypropylcellulose) (HPC) 98 % of control

COC(=O)/C=C(\C=C/C(=O)O)C(=O)O
inactive: [4] 104 % of control | [5] 100 % of control | [6] 95 % of control

Cc1nn(C(=O)c2ccncc2)c(C)c1N=Nc1ccc(S(=O)(=O)Nc2ccccn2)cc1
inactive: dose: 50.0 mg/kg/injection, schedule: Q01DX009 (ip), vehicle: Klucel (hydroxypropylcellulose) (HPC) 100 % of control | dose: 100.0 mg/kg/injection, schedule: Q01DX009 (ip), vehicle: Klucel (hydroxypropylcellulose) (HPC) 91 % of control | dose: 200.0 mg/kg/injection, schedule: Q01DX009 (ip), vehicle: Klucel (hydroxypropylcellulose) (HPC) 92 % of control

CNC(=O)OCc1onc(-c2ccccc2)c1COC(=O)NC
inactive: dose: 12.5 mg/kg/injection, schedule: Q01DX005 (ip), vehicle: distilled water + Tween-80 98 % of control | dose: 25.0 mg/kg/injection, schedule: Q01DX005 (ip), vehicle: distilled water + Tween-80 100 % of control | dose: 50.0 mg/kg/injection, schedule: Q01DX005 (ip), vehicle: distilled water + Tween-80 98 % of control | dose: 100.0 mg/kg/injection, schedule: Q01DX005 (ip), vehicle: distilled water + Tween-80 100 % of control | dose: 200.0 mg/kg/injection, schedule: Q01DX005 (ip), vehicle: distilled water + Tween-80 98 % of control

Cc1ncc(CN2CSC(CCO)C2C)c(N)n1 (stereo not given)
inactive: [15] 100 % of control | [16] 106 % of control | [17] 105 % of control

FC(F)(F)c1cc([C@H]2[C@@H]3CCCCN32)c2cccc(C(F)(F)F)c2n1 (stereo not given in full)
inactive: dose: 12.5 mg/kg/injection, schedule: Q04DX003 (ip), vehicle: distilled water + Tween-80 93 % of control | dose: 25.0 mg/kg/injection, schedule: Q04DX003 (ip), vehicle: distilled water + Tween-80 97 % of control | dose: 50.0 mg/kg/injection, schedule: Q04DX003 (ip), vehicle: distilled water + Tween-80 96 % of control | dose: 100.0 mg/kg/injection, schedule: Q04DX003 (ip), vehicle: distilled water + Tween-80 95 % of control | dose: 200.0 mg/kg/injection, schedule: Q04DX003 (ip), vehicle: distilled water + Tween-80 99 % of control | dose: 400.0 mg/kg/injection, schedule: Q04DX003 (ip), vehicle: distilled water + Tween-80 103 % of control
